Results published in patent US20030212088A1, “Methods and compositions for treating, preventing or delaying onset of a neoplasm” (priority 2002, published 2003).
Where a name gives a salt, the structure may show the parent alone.

System: Mouse serum IGF-1
Assay: Serum IGF-I radioimmunoassay in CT-26 tumor-bearing mice
Format: in vivo, BALB/c mice
Settings: serum collected at sacrifice (day 24); Pegvisomant 5.0 mg/day s.c.; Irinotecan 100 mg/kg on post-inoculation days 7, 14, 21
Method: CT-26 cells (mouse colon carcinoma) are grown in DMEM with 10% fetal bovine serum until the cells are approximately 50% confluent. Trypsin is used to lift adherent cells from the surface of tissue culture flask. The cells are then washed and suspended in Hank's buffered saline solution. BALB/c mice (Jackson Laboratories, Bar Harbor, Me.), 5-8 weeks of age, are used in this example. Initially, the spleen is mobilized using a left flank incision. Direct splenic injections of CT-26 cells is performed (1×10^4 viable cells, 0.05 ml total volume). Wound clips are used to close the incision. This is a syngenic colon cancer model so the host animals are not immunocompromised.
Injections are administered on the flank opposite the side of the wound clips from the splenic injection using a 25-gauge needle on a tuberculin syringe.
Mice are sacrificed on day 24. […] Treatment groups are compared using a standard t-test.
Mouse serum IGF-1 is measured by radioimmunoassay (RIA) after acid-ethanol extraction. Briefly, the serum/extraction mixture is incubated at room temperature for 2 hours, centrifuged, and the supernatant is diluted 1:200 for analysis. IGF-I concentrations are the measured by RIA using a polyclonal rabbit antibody (Nicohls Institute, San Juan Capistrano, Calif.). The assay standards are created with recombinant human IGF-I (Amersham International, Bucks, UK).

Compound	serum IGF-I concentration (mean ± standard error) [µg/L]
Pegvisomant	50 ± 5.3
CCc1c2c(nc3ccc(OC(=O)N4CCC(N5CCCCC5)CC4)cc13)-c1cc3c(c(=O)n1C2)COC(=O)[C@]3(O)CC [Irinotecan, (4S)-4,11-diethyl-4-hydroxy-9-((4-piperidinopiperidino)carbonyloxy)-1H-pyrano (3′,4′:6,7)indolizino(1,2-b)quinoline-3,14(4H,12H) dione hydrochloride]	129 ± 5.9
